Measurements published in patent US11633370B2, “Use of scavengers of reactive gamma-ketoaldehydes to extend cell lifespan and healthspan” (Vanderbilt University, priority 2016, dated 2023).

Key:
[1] = system: N2 WT C. elegans; assay: Lipofuscin autofluorescence measurement, N2; assay type: in vivo; settings: 100 μM or 500 μM SA versus vehicle control; p<0.01
Description: (§1) To quantify this, the present inventors chose both a biochemical endpoint (lipofuscin autofluorescence) and a behavioral measure (pharyngeal pumping) that change predictably with aging and are associated with healthspan. The accumulation in the nematode intestinal epithelium of autofluorescent lipofuscin granules, a heterogeneous mixture of oxidized and crosslinked lipids and proteins and advanced glycation end products, is a known conserved phenomenon observed to increase with age. Visualization of lipofuscin granules is often used as an age-related assessment of healthspan. Lipofuscin autofluorescence were quantified over time (every 5 days) in N2 adult nematodes (10-20 per colony) in the presence of increasing doses of SA. SA response profiles were generated from integrating the area-under-the-curve (AUC) of fluorescent intensity as a function of time (FIG. 1C). […] For a behavioral/functional measurement of health, pharyngeal pumping rates were quantified. […] Pharyngeal pumping rates quantified in WT N2 worms established on OP50-seeded NGM agar plates with increasing concentrations of SA. The frequency of pharyngeal pumping was measured and recorded every fifth day as the animals aged.
Synchronized late L4/early young adult worms were plated on FUDR containing SA-OP50-seeded NGM plates and worms were maintained at 20° C. […] The fluorescence was calculated using ImageJ software.

[2] = system: N2 WT C. elegans; assay: Pharyngeal pumping rate, N2; assay type: in vivo; settings: increasing concentrations of SA, measured every fifth day; p<0.05
Description: as §1, with “SA.” for “SA. SA response profiles were generated from integrating the area-under-the-curve (AUC) of fluorescent intensity as a function of time (FIG. 1C).”
C. elegans pharyngeal pumping rate assays were performed on 60-mm agar plates with bacterial lawns at room temperature. […] The number of contractions in the terminal bulb of the pharynx was counted for 20 s and then plotted.

[3] = system: MnSOD; assay: Western blot of acetyl-Lys 122 MnSOD; assay type: in vivo, C. elegans; settings: 500 μM SA, day 15; WT N2 compared to VC199 treated with the same dose; P>0.05
Description: One of the major stimuli for activation of sirtuins is oxidative stress. […] Indeed, the mitochondrial antioxidant manganese superoxide dismutase (MnSOD) has been identified as one of the major protein targets that is deacetylated by sirtuin isoforms, with deacetylation enhancing the enzymatic activity of MnSOD [60]. If SA indeed preserves SIR-2.1 enzymatic function in vivo, the present inventors hypothesized that SA treatment would dose-dependently decrease biomarkers of oxidant injury in a SIR-2.1-dependent manner. To quantify oxidant injury, the present inventors measured F3-isoprostanes (F3-IsoPs). F3-IsoPs are the products of free radical-mediated peroxidation of eicosapentaenoic acid (EPA), and are known to be a highly sensitive and accurate marker of oxidative damage in Caenorhabditis elegans. F3—IsoPs were collected from WT N2 and from VC199 (SIR-2.1 deficient strain) nematodes grown on OP50-NGM agar plates containing increasing concentrations of SA from Day 1 of adulthood until collection at Day 15. […] To further characterize SA's ability to preserve SIR-2.1 function, the present inventors assessed acetylation of MnSOD at Lys 122.
Day 15 adult worms grown on FUDR containing SA-OP50-seeded NGM plates were harvested in M9 medium, followed by floatation on an ice-cold 60% w/v sucrose gradient to segregate clean bacteria-free adult worms from bacterial debris. […]

[4] = in vivo; cited from earlier work

NCc1ccccc1O [SA, salicylamine]
age-associated lipofuscin accumulation (AUC of autofluorescence over time) [1]: significant reduction
age-associated decline in pharyngeal pumping rate [2]: dose-dependent protection
acetyl-Lys 122 in MnSOD [3]: trend toward lower acetyl-Lys 122
oral bioavailability [4]: orally bioavailable
